# Experimental data from PubChem BioAssay (NCI).
# Where “and” joins values, the source holds several entries; their conditions need not be identical. Equal entries are not always repeated.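 Results reflect a 48-hour exposure of cells in 96-well plates to compound at five concentrations. Here, GI50 denotes the concentration required for 50% inhibition of growth. TGI: total growth inhibition.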 *1 amine or outer side, *2 acyl side, *3 side chain or, on linkers, in order; H or OH if unused. Where a SMILES comes first, the peptide text is derived from it. Bridges are numbered along the chain shown (N, C = ends). Roman numbers before positions name the chains, in order. [ ]: non-standard residue; d: D form. Actinocin(1to9) = Cc1c2oc3c(C)ccc(C(=O)[*:2])c3nc-2c(C(=O)[*:1])c(N)c1=O; NMeV = CN[CH](C(=O)O)C(C)C; Sar = CNCC(=O)O
# Legend:
# Experiment in all cases: inhibition of tumour cell growth, NCI panel, 48 h
# 786-0 renal = system: 786-0 renal
# IGROV1 ovarian = system: IGROV1 ovarian
# NCI-H226 lung = system: NCI-H226 lung
# SK-MEL-2 melanoma = system: SK-MEL-2 melanoma
# HCT-116 colon = system: HCT-116 colon
# SW-620 colon = system: SW-620 colon
# HOP-92 NSCLC = system: HOP-92 NSCLC
# SF-268 CNS = system: SF-268 CNS
# TK-10 renal = system: TK-10 renal
# KM12 colon = system: KM12 colon
# OVCAR-8 ovarian = system: OVCAR-8 ovarian
# OVCAR-4 ovarian = system: OVCAR-4 ovarian
# HCT-15 colon = system: HCT-15 colon
# M14 melanoma = system: M14 melanoma
# UO-31 renal = system: UO-31 renal
# SR leukemia = system: SR leukemia
Compound,TGI (786-0 renal) [µM],TGI (IGROV1 ovarian) [µM],TGI (NCI-H226 lung),TGI (SK-MEL-2 melanoma) [µM],TGI (HCT-116 colon) [µM],TGI (SW-620 colon) [µM],TGI (HOP-92 NSCLC) [µM],TGI (SF-268 CNS),TGI (TK-10 renal) [µM],TGI (KM12 colon) [µM],TGI (OVCAR-8 ovarian) [µM],TGI (OVCAR-4 ovarian),TGI (HCT-15 colon) [µM],TGI (M14 melanoma) [µM],TGI (UO-31 renal),TGI (SR leukemia) [µM],GI50 (NCI-H226 lung) [µM],GI50 (UO-31 renal) [µM],GI50 (SF-268 CNS) [µM],GI50 (OVCAR-4 ovarian) [µM]
CCCN(CCCC(NC(C)=O)C(=O)NCc1ccccc1)C(=O)N(C)N=O (stereo not drawn),> 100,> 100,> 100 µM,> 100,> 100,> 100,> 100,> 100 µM,> 100,> 100,> 100,> 100 µM,> 100,> 100,,,,,,
C#CCNCC(=O)O,> 100,> 100,> 100 µM,> 100,> 100,> 100,> 100,> 100 µM,> 100,> 100,> 100,> 100 µM,> 100,> 100,> 100 µM,,,,,
CC12CCC(=O)N1[C@@H](c1ccccc1)[C@@H](c1ccccc1)O2 (stereo partly drawn),> 100,> 100,> 100 µM,> 100,> 100,> 100,> 100,> 100 µM,,> 100,> 100,> 100 µM,> 100,> 100,> 100 µM,,,,,
CCc1n[nH]c(=O)n1-n1c(C)ccc1C,> 100,> 100,> 100 µM,> 100,> 100,> 100,,> 100 µM,> 100,> 100,> 100,> 100 µM,> 100,> 100,> 100 µM,> 100,,,,
S=c1[nH]nc(COc2ccc(Cl)cc2)n1-c1ccccc1,> 100,> 100,> 100 µM,> 100,> 100,> 100,> 100,> 100 µM,> 100,> 100,> 100,> 100 µM,> 100,> 100,> 100 µM,,,,,
Cc1ccc(N=NC(=O)NNc2ccc(C)cc2Br)c(Br)c1,42.4,63.8,62.8 µM,32,24.6,> 100,,97.2 µM,86.6,,62,> 100 µM,65.3,72,77.2 µM,90.1,,,,
CC(C)(C)OC(=O)NC(Cc1ccc(OC(C)(C)C)cc1)C(=O)N[C@H]1CC[C@H](C(=O)O)C1 (stereo partly drawn),> 100,> 100,> 100 µM,> 100,> 100,> 100,,> 100 µM,> 100,> 100,> 100,,> 100,> 100,,> 100,,,,
CN(C)/C=N/c1cc(=O)n(C)c(=O)n1C,> 100,> 100,> 100 µM,> 100,> 100,> 100,> 100,> 100 µM,> 100,> 100,> 100,> 100 µM,> 100,> 100,> 100 µM,,,,,
O=[N+]([O-])c1ccc(C2=NOC(c3ccccc3)N2C23CC4CC(CC(C4)C2)C3)cc1 (stereo not drawn),57.9,72.5,89.9 µM,37.5,63.9,> 100,,> 100 µM,> 100,71.9,48.4,> 100 µM,> 100,88.4,67.3 µM,,,,,
CNc1ccc(C)cc1S(=O)(=O)c1ccccc1[N+](=O)[O-],> 100,> 100,> 100 µM,> 100,> 100,> 100,,> 100 µM,> 100,> 100,> 100,92 µM,> 100,> 100,> 100 µM,> 100,,,,
COC(=O)c1ccccc1C1CN=NC12Cc1cc3c(cc1C2=O)CCC3 (stereo not drawn),> 100,> 100,> 100 µM,> 100,> 100,> 100,> 100,> 100 µM,> 100,> 100,> 100,> 100 µM,> 100,> 100,> 100 µM,,,,,
CC(=O)OC[C@@]1(C)[C@@H]2[C@@H]3[C@@]4(CO[C@]3(C)C(=O)[C@@]3(OC(C)=O)C[C@H](C)[C@H](OC(C)=O)[C@@H]3[C@H]4OC(C)=O)[C@H](OC(=O)c3ccccc3)C[C@@H]21,> 100,> 100,> 100 µM,> 100,> 100,> 100,> 100,> 100 µM,> 100,> 100,> 100,> 100 µM,> 100,> 100,> 100 µM,,,,,
C=C1[C@@H](OC(C)=O)/C=C/C2C3C(=O)[C@@](C)(OC(C)=O)[C@H]([C@H](OC(C)=O)[C@]4(O)[C@@H](C)C(=O)O[C@H]4[C@H]1Cl)[C@@]23C (stereo partly drawn),> 100,> 100,> 100 µM,> 100,> 100,> 100,> 100,> 100 µM,> 100,> 100,> 100,> 100 µM,> 100,> 100,> 100 µM,,,,,
CN(C)C12C=CC=CC3=C(c4ccccc4)C(c4ccccc4)=C(c4ccccc4)C31c1ccccc1C2 (stereo not drawn),> 100,> 100,,,> 100,> 100,,> 100 µM,> 100,> 100,> 100,> 100 µM,> 100,> 100,> 100 µM,> 100,,,,
Cc1cc(C(O)CCCc2ccccc2)cc(C)c1O (stereo not drawn),> 100,> 100,> 100 µM,70.3,,> 100,,> 100 µM,> 100,> 100,> 100,,> 100,> 100,60.4 µM,,,,,
O=C(Oc1ccc(C(c2c(O)c3ccccc3oc2=O)c2c(O)c3ccccc3oc2=O)cc1)c1ccc(C(=O)c2ccccc2)cc1,> 100,36.6,25.9 µM,35.2,> 100,> 100,,66.5 µM,37.8,30.8,33.8,92.1 µM,89.4,,31.6 µM,55.7,,,,
Cc1c(CN2CCOCC2)c(CN2CCOCC2)c(C)n1-c1ccc(Cl)cn1,> 100,> 100,> 100 µM,> 100,> 100,> 100,,> 100 µM,> 100,> 100,> 100,> 100 µM,> 100,> 100,> 100 µM,> 100,,,,
CCN(CC)CC(C(C)=O)C(c1ccccc1)c1c(O)c2ccccc2oc1=O (stereo not drawn),> 100,> 100,> 100 µM,> 100,> 100,> 100,,> 100 µM,> 100,> 100,> 100,> 100 µM,> 100,> 100,> 100 µM,> 100,,,,
CCCCN(CCCC)CC(C(=O)Nc1ccc([N+](=O)[O-])cc1[N+](=O)[O-])/C(C)=N\NC(=O)c1ccncc1 (stereo not drawn),> 100,> 100,,> 100,,> 100,> 100,> 100 µM,> 100,,> 100,> 100 µM,> 100,> 100,> 100 µM,,,,,
O=C(c1ccc(Cl)c(Cl)c1)N(C(=S)OC12CC3CC(CC(C3)C1)C2)c1ccccc1,> 100,,> 100 µM,40.5,68.8,> 100,> 100,> 100 µM,> 100,> 100,> 100,> 100 µM,> 100,48.3,64.3 µM,,,,,
"COc1ccc(CC2NC(=O)C(NC(=O)c3c4nc5c(C(=O)NC6C(=O)NC(Cc7ccc(OC)cc7)C(=O)N7CCCC7C(=O)N(C)CC(=O)N(C)C(C(C)C)C(=O)OC6C)ccc(C)c5oc-4c(C)c(=O)c3N)C(C)OC(=O)C(C(C)C)N(C)C(=O)CN(C)C(=O)C3CCCN3C2=O)cc1 (stereo not drawn) (I: TY(Me)P[Sar][NMeV] / II: TY(Me)P[Sar][NMeV]; ester I:1-I:C, II:1-II:C; linker I:N-II:N via Actinocin(1to9); configuration not given here)",0.0253,,0.0228 µM and 0.0527 µM,0.00549,,,,0.118 µM and 0.526 µM,,1.06,,0.49 µM and 0.224 µM,,0.135,0.46 µM and 0.257 µM,< 0.001,< 0.001,0.0327,< 0.001,0.0138
COC(=O)C1=C(N)C2=C(N)Oc3ccccc3C2CC1=C(C#N)C#N (stereo not drawn),> 100,48.4,> 100 µM,> 100,99.2,> 100,,89.4 µM,52,29.5,55.7,76.1 µM,36.8,43.3,53.6 µM,> 100,,,,
O=C(O)CCC1C(=O)C2CCN1CC2 (stereo not drawn),> 100,> 100,> 100 µM,> 100,> 100,> 100,,> 100 µM,> 100,> 100,> 100,> 100 µM,> 100,> 100,> 100 µM,> 100,,,,
c1ccc(C2(c3cc4ccccc4[nH]3)OCCO2)nc1,> 100,> 100,> 100 µM,> 100,> 100,> 100,> 100,> 100 µM,> 100,> 100,> 100,> 100 µM,> 100,> 100,> 100 µM,,,,,
Cc1ccc(NC(=O)CC(=O)N2N=C(N(c3ccccc3)c3ccccc3)CC2c2ccccc2)cc1 (stereo not drawn),> 100,> 100,> 100 µM,> 100,> 100,> 100,> 100,> 100 µM,> 100,> 100,> 100,> 100 µM,> 100,> 100,> 100 µM,,,,,
O=S(=O)(Cc1ccccc1)c1nnc(S(=O)(=O)c2ccc(Cl)cc2)s1,49.5,,,50.7,36,64.1,,63.4 µM,41.9,> 100,42.8,> 100 µM,39.8,33.7,44.5 µM,,,,,
C#CCC(O)c1ccc(OC)c(OCc2ccccc2)c1 (stereo not drawn),> 100,> 100,> 100 µM,> 100,> 100,,> 100,> 100 µM,> 100,> 100,> 100,> 100 µM,> 100,> 100,> 100 µM,,,,,
COC(=O)C(Cc1c(-c2[nH]c3ccccc3c2CC(NC(C)=O)C(=O)OC)[nH]c2ccccc12)NC(C)=O (stereo not drawn),> 100,> 100,> 100 µM,> 100,> 100,> 100,> 100,> 100 µM,> 100,> 100,> 100,,> 100,> 100,> 100 µM,,,,,
CN(C)CCNc1ncnc2nc(-c3ccccc3)c(-c3ccccc3)nc12,> 100,> 100,> 100 µM,> 100,> 100,> 100,,> 100 µM,> 100,> 100,> 100,,,> 100,> 100 µM,,,,,
CC(/C=C/c1ccccc1)=N\NC(=S)N/N=C(C)/C=C/c1ccccc1,29.5,> 100,63.1 µM,50.3,> 100,> 100,,21.7 µM,46,,64.5,28.5 µM,> 100,> 100,> 100 µM,> 100,,,,
